Source: patent US20010032339A1, “Chaperone suppression of ataxin-1 aggregation and altered subcellular proteasome localization imply protein misfolding in SCA1” (priority 1998, published 2001)

How the values were obtained:
Assay type in all cases: cell-based, human
[1] = test system: ataxin-1 [92Q] in HeLa cells; assay: Immunoblot of steady-state levels of ataxin-1 in detergent soluble and insoluble fractions; details: HeLa cells expressing ataxin-1 [92Q], versus DMSO control
Procedure: The effect of β-lactone on the steady-state levels of ataxin-1 was assessed by immunoblot analysis (FIGS. 8A through 8D). HeLa cells expressing mutant ataxin-1 [92Q] were treated with either different concentrations of β-lactone or DMSO (dimethyl sulfoxide) control. Cells lysates were separated into detergent soluble and insoluble fractions and then immunoblotted with ataxin-1 antibody. […] Increasing the protein concentration per lane and extending the exposure time, a high molecular weight smear punctated by discrete bands is evident. […] Additionally, the higher molecular weight smear was never seen in the detergent soluble fraction.

[2] = test system: GFP-ataxin-1 [82Q] nuclear aggregates in HeLa cells; assay: Effect of proteasome inhibitors on aggregation of GFP-ataxin-1 [82Q] in transfected HeLa cells; details: HeLa cells transfected with GFP-ataxin-1 [82Q]
Source text: Full length mutant ataxin-1 [82Q] readily aggregates in subnuclear structures when overexpressed in tissue culture cells and these aggregates alter the staining pattern of the 20S proteasome. […] The effect of proteasome inhibitors on the aggregation of GFP-ataxin-1 [82Q] in transfected HeLa cells was examined. The protease inhibitor clasto-Lactacystin β-lactone specifically prevents protein breakdown by the proteasome, without inhibiting lysosomal degradation. […] In contrast to the 71% of mock treated cells which had nuclear aggregates, 97% of the proteasome inhibitor treated cells were aggregate positive (FIGS. 7A through 7D). […] Therefore, proteasome inhibitor treatment led to an increase in both frequency and size of nuclear aggregates. This enhancement is most likely due to the increased nuclear concentration of misfolded proteins which are not being properly degraded.

[3] = test system: ataxin-1 [92Q] nuclear aggregates in HeLa cells; assay: Ataxin-1 aggregate formation in HeLa cells cotransfected with ataxin-1 [92Q] and HDJ-2/HSDJ constructs
Source text: Full-length human HDJ-2/HSDJ and HDJ-2/HSDJ mutants Δ250 (deletion of aa 9-46) and Δ450 (deletion of aa9-107)^32 were subcloned in frame into the pFLAG-CMV-2vector (Kodak). The primers HDJ2-FOR (5′-[…]-3′) and HDJ2-REV (5′-[…]-3′) were used to PCR amplify the 5′ end of HDJ-2/HSDJ containing an inframe Not I site. The PCR product was cut with Notl and EcoRl and subcloned into pFLAG-CMV-2. This construct was digested with EcoRl and Xbal to insert the 3′ HDJ-2/HSDJ EcoRl/Xbal sequence. The constructs were confirmed by DNA sequence analysis.
Transient expression of ataxin-1 and HDJ-2/HSDJ in COS7 and HeLa cells was accomplished by transfection with Lipofectamine™ Reagent (Life technologies, Inc.) in 35 mm tissue culture plates containing sterile coverslips. Forty-eight hours after transfection, cells were fixed at 4° C. for 30 min in 4% formaldehyde in PEM (80 mM K-PIPES, pH 6.8, 5 mM EGTA pH 7.0, 2 mM MgCl2), quenched in 1 mg/ml NaBH4 in PEM, and permeabilized for 30 min in 0.5% Triton X-100 in PEM. The coverslips were blocked for 1 hour at room temperature (RT) in 5% non-fat dry milk (Bio-Rad) in 50 mM Tris-HCl pH 7.5, 150 mM NaCl, 0.05% Tween20 (TBS-T), then incubated for 60 min at RT with rabbit polyclonal antibodies (1:1000) recognizing ataxin-1 (11750VII)^44. […] Hsp70 was detected with mouse monoclonal anti-Hsp70 (1:500) (StressGen). Endogenous HDJ-2/HSDJ was detected with mouse monoclonal anti-HDJ-2/DNAJ (1:200) (Neomarkers). The 20S proteasome was visualized with rabbit polyclonal anti-20S proteasome^43 (1:500) and ataxin-1 colocalization was detected using mouse monoclonal anti-Xpress (1:1000) recognizing the Xpress epitope in pcDNA 3.1 (Invitrogen). […]
Duplicate slides were graded blindly in two independent trials. […] Frequency of aggregate formation was computed for two independent experiments and expressed as the mean±s.e.m. […]
The ability of HDJ-2/HSDJ to function as a molecular chaperone and moderate ataxin-1 aggregation in HeLa cells was tested. […] HDJ-2/HSDJ was overexpressed by transfection in HeLa cells and the cells analyzed for the staining pattern of ataxin-1. […]

Compound: CC(C)[C@H](O)[C@@]12NC(=O)[C@H](C)[C@@H]1OC2=O [β-lactone, clasto-Lactacystin β-lactone]
- steady-state level of detergent soluble form of ataxin-1 [1]: unchanged
- steady-state level of detergent-insoluble form of ataxin-1 [1]: marked accumulation
- distribution of cells containing large aggregates compared to controls [2]: dramatically increased
- percentage of cells aggregate positive ([2]; mock treated 71%): 97%

Compound: HDJ-2/HSDJ: full-length human DnaJ (Hsp40) homolog molecular chaperone, overexpressed by transfection (pFLAG-CMV-2)
- change in frequency of ataxin-1 aggregation versus vector control ([3]; HeLa cells cotransfected with ataxin-1, ANOVA F=24.5, p=0.0002): significant decrease
- distribution of ataxin-1 staining pattern (diffuse/micropunctate versus large aggregates) ([3]; HeLa cells cotransfected with ataxin-1, ANOVA F=36.4, p<0.001): more cells have diffuse/micropunctate nuclear staining pattern, than large nuclear aggregates
- percentage of cells with nuclear aggregates (aggregate-positive) ([3]; HeLa cells cotransfected with ataxin-1 [92Q], vector control approximately 70%): less than 40%
